Source: patent publication US12371428B2 (Exelixis, Inc., priority 2019, dated 2025)

Columns and labels:
Format in all cases: cell-based
[1] = molecular target: Mer (phospho-Mer, MERTK-transfected 293A cells) (Homo sapiens (Human), UniProt Q12866); assay: Mer autophosphorylation ELISA in transient transfected 293A cells (Example H); settings: cellular activity; Mer autophosphorylation ELISA in transient transfected 293A cells
Outline: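 IC50 from 4-parameter logistic fit of phospho-Mer levels, quantified by ELISA against a phospho-Mer standard in lysates of MERTK-transfected 293A cells. Cells exposed 1 h to 8-point serial dilutions, serum-free, 0.3% DMSO; controls: DMSO (100%) and reference inhibitor (0%).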

[2] = molecular target: AXL (phospho-AXL, Gas6-stimulated A-172 glioblastoma cells) (Homo sapiens (Human), UniProt P30530); assay: AXL autophosphorylation ELISA in A-172 cells (Example E); settings: cellular activity; AXL autophosphorylation ELISA in A-172 cells; read-out: Axl IC50
Chain of AXL (phospho-AXL, Gas6-stimulated A-172 glioblastoma cells) (P30530 26-894): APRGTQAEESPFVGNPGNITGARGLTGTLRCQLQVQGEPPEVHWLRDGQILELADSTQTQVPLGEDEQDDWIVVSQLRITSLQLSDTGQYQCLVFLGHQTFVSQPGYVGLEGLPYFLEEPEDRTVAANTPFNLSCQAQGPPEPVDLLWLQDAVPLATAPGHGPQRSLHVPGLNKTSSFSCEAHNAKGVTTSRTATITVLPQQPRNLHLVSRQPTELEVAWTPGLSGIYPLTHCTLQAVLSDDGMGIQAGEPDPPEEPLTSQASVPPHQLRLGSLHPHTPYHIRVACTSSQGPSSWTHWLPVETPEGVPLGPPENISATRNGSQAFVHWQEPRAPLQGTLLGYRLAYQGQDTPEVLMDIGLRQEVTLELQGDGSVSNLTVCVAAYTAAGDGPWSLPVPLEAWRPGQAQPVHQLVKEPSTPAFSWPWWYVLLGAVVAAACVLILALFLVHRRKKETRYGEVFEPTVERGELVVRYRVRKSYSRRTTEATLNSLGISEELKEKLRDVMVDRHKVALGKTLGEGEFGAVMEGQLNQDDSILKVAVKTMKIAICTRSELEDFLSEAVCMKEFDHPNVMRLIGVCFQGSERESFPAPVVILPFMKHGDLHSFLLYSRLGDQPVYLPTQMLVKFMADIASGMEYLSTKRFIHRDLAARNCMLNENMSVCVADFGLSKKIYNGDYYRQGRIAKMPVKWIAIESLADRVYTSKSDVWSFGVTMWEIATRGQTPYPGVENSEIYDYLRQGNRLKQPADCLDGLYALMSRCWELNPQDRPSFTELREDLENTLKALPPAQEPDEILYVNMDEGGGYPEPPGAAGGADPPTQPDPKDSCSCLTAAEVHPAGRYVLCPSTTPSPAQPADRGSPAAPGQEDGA
Outline: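 Phospho-AXL was measured by ELISA in lysates of Gas6-stimulated A-172 cells, starved 24 h in serum-free medium and exposed 1 h to an 8-point compound dilution at 0.3% DMSO.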

[3] = molecular target: Met (phospho-Met, HGF-stimulated PC-3 prostate cancer cells) (Homo sapiens (Human), UniProt P08581); assay: Met autophosphorylation ELISA in PC-3 cells (Example F); settings: cellular activity; Met autophosphorylation ELISA in PC-3 cells; read-out: c-Met IC50
Chain of Met (phospho-Met, HGF-stimulated PC-3 prostate cancer cells) (P08581 25-1390): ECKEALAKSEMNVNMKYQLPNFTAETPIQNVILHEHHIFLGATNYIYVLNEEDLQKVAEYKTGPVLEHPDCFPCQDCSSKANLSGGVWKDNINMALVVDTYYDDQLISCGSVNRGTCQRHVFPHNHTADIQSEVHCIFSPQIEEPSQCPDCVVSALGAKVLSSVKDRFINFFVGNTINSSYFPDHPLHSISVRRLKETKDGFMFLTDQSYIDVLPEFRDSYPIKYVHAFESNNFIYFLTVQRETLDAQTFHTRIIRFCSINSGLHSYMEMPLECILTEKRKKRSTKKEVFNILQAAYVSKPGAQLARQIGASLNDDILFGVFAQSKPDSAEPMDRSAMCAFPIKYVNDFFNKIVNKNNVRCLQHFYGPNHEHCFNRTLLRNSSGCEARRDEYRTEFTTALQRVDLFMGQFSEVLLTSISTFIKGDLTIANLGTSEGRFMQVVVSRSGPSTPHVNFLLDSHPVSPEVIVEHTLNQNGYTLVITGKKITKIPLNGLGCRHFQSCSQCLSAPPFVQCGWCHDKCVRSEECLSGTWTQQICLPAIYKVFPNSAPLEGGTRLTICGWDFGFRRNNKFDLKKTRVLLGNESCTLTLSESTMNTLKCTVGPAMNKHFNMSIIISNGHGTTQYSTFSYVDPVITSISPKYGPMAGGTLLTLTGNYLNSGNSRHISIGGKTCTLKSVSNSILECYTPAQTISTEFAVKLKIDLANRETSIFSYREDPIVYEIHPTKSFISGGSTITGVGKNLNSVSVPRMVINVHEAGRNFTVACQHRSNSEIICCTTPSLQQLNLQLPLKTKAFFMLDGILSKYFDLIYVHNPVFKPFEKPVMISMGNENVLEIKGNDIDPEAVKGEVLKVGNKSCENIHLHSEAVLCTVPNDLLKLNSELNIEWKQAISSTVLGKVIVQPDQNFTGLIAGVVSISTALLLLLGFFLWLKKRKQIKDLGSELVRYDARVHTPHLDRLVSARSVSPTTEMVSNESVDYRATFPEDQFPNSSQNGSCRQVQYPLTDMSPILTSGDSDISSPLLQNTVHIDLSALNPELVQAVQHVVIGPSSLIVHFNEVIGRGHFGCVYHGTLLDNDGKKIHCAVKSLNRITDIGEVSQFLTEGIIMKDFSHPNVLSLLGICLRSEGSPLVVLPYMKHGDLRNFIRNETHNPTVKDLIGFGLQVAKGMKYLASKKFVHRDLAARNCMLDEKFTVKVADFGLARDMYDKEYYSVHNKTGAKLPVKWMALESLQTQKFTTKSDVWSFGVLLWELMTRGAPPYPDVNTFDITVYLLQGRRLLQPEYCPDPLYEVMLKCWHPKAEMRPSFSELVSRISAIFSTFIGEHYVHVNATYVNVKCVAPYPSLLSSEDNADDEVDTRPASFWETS
Outline: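 Serum-starved (3 h) PC-3 cells were treated 1 h with compounds (8-point curve, 0.3% DMSO), then stimulated with 100 ng/mL human HGF for 10 min. Lysate phospho-Met (panTyr) was measured by sandwich ELISA, normalised to DMSO and reference-inhibitor controls. IC50 came from 4-parameter logistic fit.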

[4] = molecular target: KDR (phospho-KDR, VEGF165-stimulated HUVEC cells) (Homo sapiens (Human), UniProt P35968); assay: KDR autophosphorylation ELISA in HUVEC cells (Example G); settings: cellular activity; KDR autophosphorylation ELISA in HUVEC cells
Chain of KDR (phospho-KDR, VEGF165-stimulated HUVEC cells) (P35968 20-1356): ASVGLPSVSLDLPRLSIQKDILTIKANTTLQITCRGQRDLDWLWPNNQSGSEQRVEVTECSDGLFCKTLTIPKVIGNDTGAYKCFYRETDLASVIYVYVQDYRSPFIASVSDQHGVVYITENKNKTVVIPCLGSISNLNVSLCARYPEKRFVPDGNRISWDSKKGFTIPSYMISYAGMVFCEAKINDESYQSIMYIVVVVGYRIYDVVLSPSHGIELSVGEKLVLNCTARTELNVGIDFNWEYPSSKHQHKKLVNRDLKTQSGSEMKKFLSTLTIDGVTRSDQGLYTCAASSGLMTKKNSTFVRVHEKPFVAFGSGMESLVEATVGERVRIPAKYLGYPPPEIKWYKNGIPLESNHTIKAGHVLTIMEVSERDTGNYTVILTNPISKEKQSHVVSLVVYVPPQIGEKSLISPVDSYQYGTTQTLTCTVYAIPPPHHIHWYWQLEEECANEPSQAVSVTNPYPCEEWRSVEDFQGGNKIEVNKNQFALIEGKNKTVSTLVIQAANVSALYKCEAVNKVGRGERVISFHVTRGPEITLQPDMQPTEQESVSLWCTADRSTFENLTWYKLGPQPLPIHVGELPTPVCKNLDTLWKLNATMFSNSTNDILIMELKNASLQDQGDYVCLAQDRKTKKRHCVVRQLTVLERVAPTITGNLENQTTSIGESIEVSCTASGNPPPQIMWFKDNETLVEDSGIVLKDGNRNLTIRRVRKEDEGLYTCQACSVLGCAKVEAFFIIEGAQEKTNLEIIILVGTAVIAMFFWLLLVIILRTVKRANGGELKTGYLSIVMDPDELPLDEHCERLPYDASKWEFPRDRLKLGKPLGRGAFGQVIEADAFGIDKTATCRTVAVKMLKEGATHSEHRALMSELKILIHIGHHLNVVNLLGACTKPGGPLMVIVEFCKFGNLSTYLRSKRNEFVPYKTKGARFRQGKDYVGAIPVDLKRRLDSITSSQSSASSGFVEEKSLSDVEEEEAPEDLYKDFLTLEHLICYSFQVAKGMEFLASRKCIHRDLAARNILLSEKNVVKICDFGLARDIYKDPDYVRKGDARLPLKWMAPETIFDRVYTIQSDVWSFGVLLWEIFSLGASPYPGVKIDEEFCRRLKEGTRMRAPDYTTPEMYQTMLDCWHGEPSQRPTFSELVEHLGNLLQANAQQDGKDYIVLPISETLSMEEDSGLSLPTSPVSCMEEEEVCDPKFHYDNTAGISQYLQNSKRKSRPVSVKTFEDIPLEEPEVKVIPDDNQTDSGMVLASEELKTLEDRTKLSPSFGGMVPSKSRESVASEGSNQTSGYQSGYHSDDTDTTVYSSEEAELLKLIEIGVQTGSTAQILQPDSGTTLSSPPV
Outline: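 Read-out is phospho-KDR measured by ELISA in lysates of VEGF165-stimulated (100 ng/mL, 5 min) HUVEC that were serum-starved 24 h and then pre-exposed 1 h to compound across 8 doses in 0.3% DMSO. Unstimulated lysates defined 0% and stimulated vehicle lysates 100% activity; IC50 values come from 4-parameter logistic regression.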

Chain of Mer (phospho-Mer, MERTK-transfected 293A cells) (Q12866 21-999): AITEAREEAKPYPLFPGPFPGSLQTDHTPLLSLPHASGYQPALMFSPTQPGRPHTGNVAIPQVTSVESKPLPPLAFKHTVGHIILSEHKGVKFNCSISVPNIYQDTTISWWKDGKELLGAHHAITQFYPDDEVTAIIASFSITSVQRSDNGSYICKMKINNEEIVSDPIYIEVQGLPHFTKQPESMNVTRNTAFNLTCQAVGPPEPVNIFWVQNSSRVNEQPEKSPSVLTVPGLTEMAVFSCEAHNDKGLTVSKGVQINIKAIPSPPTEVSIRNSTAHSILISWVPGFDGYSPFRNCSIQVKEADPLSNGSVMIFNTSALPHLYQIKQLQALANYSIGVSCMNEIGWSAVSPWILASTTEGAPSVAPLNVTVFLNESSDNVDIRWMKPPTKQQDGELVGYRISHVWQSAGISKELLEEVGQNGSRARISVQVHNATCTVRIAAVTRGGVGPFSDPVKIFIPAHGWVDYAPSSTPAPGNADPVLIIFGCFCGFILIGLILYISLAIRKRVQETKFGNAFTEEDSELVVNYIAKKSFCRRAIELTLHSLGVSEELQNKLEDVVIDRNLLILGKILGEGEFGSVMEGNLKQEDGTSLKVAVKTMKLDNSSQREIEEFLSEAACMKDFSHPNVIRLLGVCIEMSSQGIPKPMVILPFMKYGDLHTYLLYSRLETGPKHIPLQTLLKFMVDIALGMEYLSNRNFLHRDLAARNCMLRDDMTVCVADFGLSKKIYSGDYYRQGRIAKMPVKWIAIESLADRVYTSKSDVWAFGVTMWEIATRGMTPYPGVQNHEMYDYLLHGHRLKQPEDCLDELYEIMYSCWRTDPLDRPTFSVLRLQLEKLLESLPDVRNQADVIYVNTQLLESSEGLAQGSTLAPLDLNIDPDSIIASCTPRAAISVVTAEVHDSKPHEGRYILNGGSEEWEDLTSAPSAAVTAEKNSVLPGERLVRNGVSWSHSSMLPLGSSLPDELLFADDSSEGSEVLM

Row | SMILES | IC50 [1] [nM] | IC50 [2] [nM] | IC50 [3] [nM] | IC50 [4] [nM]
1 | COc1cnc2c(Oc3ccc(NC(=O)c4c(C)c(C)c(C)n(-c5ccc(F)cc5)c4=O)cc3F)ccnc2c1 [Compound 316, N-[3-Fluoro-4-[(7-methoxy-1,5-naphthyridin-4-yl)oxy]phenyl]-1-(4-fluorophenyl)-4,5,6-trimethyl-2-oxopyridine-3-carboxamide] | < 100 | < 100 | < 100 | < 100
2 | C=C(C)c1cnc2c(Oc3ccc(NC(=O)c4c(C)nc(C)n(-c5ccc(F)cc5)c4=O)cc3F)ccnc2c1 [Compound 466, 1-(4-fluorophenyl)-N-[3-fluoro-4-[(7-prop-1-en-2-yl-1,5-naphthyridin-4-yl)oxy]phenyl]-2,4-dimethyl-6-oxopyrimidine-5-carboxamide] | < 100 | < 100 | < 100 | < 100
3 | COc1cnc2c(Oc3ccc(NC(=O)c4c(CO)nc(C)c(-c5ccc(F)cc5)c4O)cc3F)ccnc2c1 [Compound 651, N-[3-fluoro-4-[(7-methoxy-1,5-naphthyridin-4-yl)oxy]phenyl]-5-(4-fluorophenyl)-4-hydroxy-2-(hydroxymethyl)-6-methylpyridine-3-carboxamide] | < 100 | < 100 | < 100 | < 100
4 | COc1cc(Oc2ccnc3cc(OC)c(OC)nc23)c(F)cc1NC(=O)c1cn(C)c(C)c(-c2ccc(F)cc2)c1=O [Compound 743, N-[4-[(6,7-dimethoxy-1,5-naphthyridin-4-yl)oxy]-5-fluoro-2-methoxyphenyl]-5-(4-fluorophenyl)-1,6-dimethyl-4-oxopyridine-3-carboxamide] | < 100 | < 100 | < 100 | > 300
5 | COc1cc2nccc(Oc3ccc(NC(=O)c4c(C)n(C)nc(-c5ccc(F)cc5)c4=O)cc3F)c2nc1OC [Compound 655, N-[4-[(6,7-dimethoxy-1,5-naphthyridin-4-yl)oxy]-3-fluorophenyl]-6-(4-fluorophenyl)-2,3-dimethyl-5-oxopyridazine-4-carboxamide] | < 100 | < 100 | < 100 | < 100
6 | COc1cc2nccc(Oc3ccc(NC(=O)c4cc(C(C)=O)c(C)n(-c5ccc(F)cc5)c4=O)cc3)c2nc1OC [Compound 659, 5-acetyl-N-[4-[(6,7-dimethoxy-1,5-naphthyridin-4-yl)oxy]phenyl]-1-(4-fluorophenyl)-6-methyl-2-oxopyridine-3-carboxamide] | < 100 | < 100 | < 100 | > 300
7 | C=C(C)c1cnc2c(Oc3ccc(NC(=O)c4nnc(C)c(-c5ccc(F)cc5)c4OC)cc3F)ccnc2c1 [Compound 478, 5-(4-fluorophenyl)-N-[3-fluoro-4-[(7-prop-1-en-2-yl-1,5-naphthyridin-4-yl)oxy]phenyl]-4-methoxy-6-methylpyridazine-3-carboxamide] | < 100 | < 100 | < 100 | < 100
8 | COc1cc2nccc(Oc3ccc(NC(=O)c4c(C)c(C(C)=O)c(C)n(-c5ccc(F)cc5)c4=O)cc3)c2nc1OC [Compound 322, 5-Acetyl-N-[4-[(6,7-dimethoxy-1,5-naphthyridin-4-yl)oxy]phenyl]-1-(4-fluorophenyl)-4,6-dimethyl-2-oxopyridine-3-carboxamide] | < 100 | < 100 | < 100 | 100 to 300
9 | COc1nc2c(Oc3ccc(NC(=O)c4c(C)nc(C)n(-c5ccc(F)cc5)c4=O)cc3F)ccnc2cc1C [Compound 468, N-[3-fluoro-4-[(6-methoxy-7-methyl-1,5-naphthyridin-4-yl)oxy]phenyl]-1-(4-fluorophenyl)-2,4-dimethyl-6-oxopyrimidine-5-carboxamide] | < 100 | < 100 | < 100 | < 100
10 | COc1cnc2c(Oc3ccc(NC(=O)c4cnc(C5CC5)c(-c5ccc(F)cc5)c4O)cc3F)ccnc2c1 [Compound 658, 6-cyclopropyl-N-[3-fluoro-4-[(7-methoxy-1,5-naphthyridin-4-yl)oxy]phenyl]-5-(4-fluorophenyl)-4-hydroxypyridine-3-carboxamide] | < 100 | < 100 | < 100 | > 300
11 | COc1cnc2c(Oc3ccc(NC(=O)c4cn(C)c(C5CC5)c(-c5ccc(F)cc5)c4=O)cc3F)ccnc2c1 [Compound 685, 6-cyclopropyl-N-[3-fluoro-4-[(7-methoxy-1,5-naphthyridin-4-yl)oxy]phenyl]-5-(4-fluorophenyl)-1-methyl-4-oxopyridine-3-carboxamide] | < 100 | < 100 | < 100 | > 300
12 | COc1cc2nccc(Oc3ccc(NC(=O)c4c(C)c(Br)c(C)n(-c5ccccc5)c4=O)cc3F)c2nc1OC [Compound 747, 5-bromo-N-[4-[(6,7-dimethoxy-1,5-naphthyridin-4-yl)oxy]-3-fluorophenyl]-4,6-dimethyl-2-oxo-1-phenylpyridine-3-carboxamide] | < 100 | < 100 | < 100 | 100 to 300
13 | COc1cnc2c(Oc3ccc(NC(=O)c4cc(C(C)=O)c(C)n(-c5ccc(F)cc5)c4=O)cc3F)ccnc2c1 [Compound 656, 5-acetyl-N-[3-fluoro-4-[(7-methoxy-1,5-naphthyridin-4-yl)oxy]phenyl]-1-(4-fluorophenyl)-6-methyl-2-oxopyridine-3-carboxamide] | < 100 | < 100 | < 100 | > 300
14 | COc1cc2nccc(Oc3ccc(NC(=O)c4cn(C)c(C5CC5)c(-c5ccc(F)cc5)c4=O)cc3F)c2nc1OC [Compound 728, 6-cyclopropyl-N-[4-[(6,7-dimethoxy-1,5-naphthyridin-4-yl)oxy]-3-fluorophenyl]-5-(4-fluorophenyl)-1-methyl-4-oxopyridine-3-carboxamide] | < 100 | < 100 | < 100 | 100 to 300
15 | CCOc1nc2c(Oc3ccc(NC(=O)c4c(C)nc(C)c(-c5ccc(F)cc5C)c4O)cc3F)ccnc2cc1OC [Compound 678, N-[4-[(6-ethoxy-7-methoxy-1,5-naphthyridin-4-yl)oxy]-3-fluorophenyl]-5-(4-fluoro-2-methylphenyl)-4-hydroxy-2,6-dimethylpyridine-3-carboxamide] | < 100 | < 100 | < 100 | < 100
16 | COCc1nc(C)c(-c2ccc(F)cc2)c(O)c1C(=O)Nc1ccc(Oc2ccnc3cc(C)c(F)nc23)c(F)c1 [Compound 446, N-[3-fluoro-4-[(6-fluoro-7-methyl-1,5-naphthyridin-4-yl)oxy]phenyl]-5-(4-fluorophenyl)-4-hydroxy-2-(methoxymethyl)-6-methylpyridine-3-carboxamide] | < 100 | < 100 | < 100 | < 100
17 | C=Cc1c(C)c(C(=O)Nc2ccc(Oc3ccnc4cc(OC)cnc34)c(F)c2)c(=O)n(-c2ccc(F)cc2)c1C [Compound 329, 5-ethenyl-N-[3-fluoro-4-[(7-methoxy-1,5-naphthyridin-4-yl)oxy]phenyl]-1-(4-fluorophenyl)-4,6-dimethyl-2-oxopyridine-3-carboxamide] | < 100 | < 100 | < 100 | 100 to 300
18 | COc1cnc2c(Oc3ccc(NC(=O)c4c(C)nc(C)c(-c5ccc(C(C)C)cc5)c4O)cc3F)ccnc2c1 [Compound 690, N-[3-fluoro-4-[(7-methoxy-1,5-naphthyridin-4-yl)oxy]phenyl]-4-hydroxy-2,6-dimethyl-5-(4-propan-2-ylphenyl)pyridine-3-carboxamide] | 100 to 300 | > 300 | > 300 | > 300
19 | COc1cnc2c(Oc3ccc(NC(=O)c4c(C)nc(C)c(-c5ccc(F)cc5C)c4O)cc3)ccnc2c1 [Compound 682, 5-(4-fluoro-2-methylphenyl)-4-hydroxy-N-[4-[(7-methoxy-1,5-naphthyridin-4-yl)oxy]phenyl]-2,6-dimethylpyridine-3-carboxamide] | < 100 | < 100 | < 100 | < 100
20 | COc1cc2nccc(Oc3ccc(NC(=O)c4cc(-c5ccc(F)cc5)c(C)nn4)cc3F)c2nc1OC [Compound 601, N-[4-[(6,7-Dimethoxy-1,5-naphthyridin-4-yl)oxy]-3-fluorophenyl]-5-(4-fluorophenyl)-6-methylpyridazine-3-carboxamide] | < 100 | > 300 | > 300 | > 300
21 | CCn1nc(C(=O)Nc2ccc(Oc3ccnc4cc(OC)c(OC)cc34)c(F)c2)c(=O)c(-c2ccc(F)cc2)c1C [Compound 573, N-[4-(6,7-Dimethoxyquinolin-4-yl)oxy-3-fluorophenyl]-1-ethyl-5-(4-fluorophenyl)-6-methyl-4-oxopyridazine-3-carboxamide] | < 100 | < 100 | < 100 | < 100
